Read-outs that look alike come from different tables or passages of the source.
What was measured:
Assay type in all cases: cell-based
[1] = molecular target: T1, hGIPR (Homo sapiens, UniProt P48546); experiment: Functional cAMP formation (HTRF) in HEK-293 clonal cells expressing hGIPR, 0.1% bovine casein, without or with 1.0% human serum albumin; conditions: for Emax: percent of maximal response to GIP(1-42)NH2; for EC50: cAMP
T1 construct: expressed in transfected cells
T1 sequence (P48546 22-466): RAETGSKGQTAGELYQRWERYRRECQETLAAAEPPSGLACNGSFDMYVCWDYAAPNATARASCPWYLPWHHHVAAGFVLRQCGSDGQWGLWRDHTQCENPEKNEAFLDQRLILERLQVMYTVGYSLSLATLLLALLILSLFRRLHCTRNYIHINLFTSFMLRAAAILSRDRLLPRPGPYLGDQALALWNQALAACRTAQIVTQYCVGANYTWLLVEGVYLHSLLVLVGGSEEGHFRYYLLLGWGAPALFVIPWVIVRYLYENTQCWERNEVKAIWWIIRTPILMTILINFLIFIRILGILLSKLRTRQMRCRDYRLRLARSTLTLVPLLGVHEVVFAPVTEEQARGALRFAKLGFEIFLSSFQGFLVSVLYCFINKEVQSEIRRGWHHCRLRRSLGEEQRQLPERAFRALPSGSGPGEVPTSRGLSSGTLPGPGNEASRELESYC
Procedure, shortened: (§1)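 Cells were stimulated with peptide for 30 min at 37° C, then intracellular cAMP was measured by competitive HTRF (665/620 nm ratio) and converted to nM using a cAMP standard curve. Relative EC50 and Emax came from four-parameter logistic fits of percent maximal response against peptide concentration.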

[2] = molecular target: hGLP-1R (Homo sapiens, UniProt P43220); experiment: Functional cAMP formation (HTRF) in HEK-293 clonal cells expressing hGLP-1R, 0.1% bovine casein, without or with 1.0% human serum albumin; set-up: expressed in transfected cells; conditions: for EC50: cAMP
hGLP-1R, sequence (P43220 24-463): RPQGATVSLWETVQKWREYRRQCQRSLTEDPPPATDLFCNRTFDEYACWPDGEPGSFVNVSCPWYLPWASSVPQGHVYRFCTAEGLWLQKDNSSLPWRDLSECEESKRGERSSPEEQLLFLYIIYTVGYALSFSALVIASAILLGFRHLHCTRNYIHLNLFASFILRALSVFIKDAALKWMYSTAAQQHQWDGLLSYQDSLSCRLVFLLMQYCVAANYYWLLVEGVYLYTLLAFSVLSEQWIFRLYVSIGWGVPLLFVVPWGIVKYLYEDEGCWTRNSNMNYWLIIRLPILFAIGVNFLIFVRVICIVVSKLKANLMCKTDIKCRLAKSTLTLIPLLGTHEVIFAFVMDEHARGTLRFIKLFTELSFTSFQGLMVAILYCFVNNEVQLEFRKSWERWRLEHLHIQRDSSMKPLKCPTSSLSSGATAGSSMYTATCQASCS
Procedure, shortened: as §1

[3] = molecular target: T2, hGCGR (Homo sapiens, UniProt P47871); experiment: Functional cAMP formation (HTRF) in HEK-293 clonal cells expressing hGCGR, 0.1% bovine casein, without or with 1.0% human serum albumin; conditions: cAMP
T2 construct: expressed in transfected cells
T2 sequence (P47871 26-477): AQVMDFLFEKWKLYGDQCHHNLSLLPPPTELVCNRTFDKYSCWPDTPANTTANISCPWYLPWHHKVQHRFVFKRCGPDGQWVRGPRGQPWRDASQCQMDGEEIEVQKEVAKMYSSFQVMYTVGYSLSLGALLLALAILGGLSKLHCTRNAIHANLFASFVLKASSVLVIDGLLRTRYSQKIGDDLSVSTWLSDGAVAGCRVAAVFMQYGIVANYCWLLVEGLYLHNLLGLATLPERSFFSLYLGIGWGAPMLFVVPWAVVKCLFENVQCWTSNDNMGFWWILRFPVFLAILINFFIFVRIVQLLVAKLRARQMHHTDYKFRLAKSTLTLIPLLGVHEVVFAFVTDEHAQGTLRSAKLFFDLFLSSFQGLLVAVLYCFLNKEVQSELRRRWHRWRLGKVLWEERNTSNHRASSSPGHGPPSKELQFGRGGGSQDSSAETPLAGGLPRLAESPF
Procedure, shortened: as §1

[4] = HEK293, read-out: hGIPR Emax, % ± SEM, cAMP, 37° C., 0.1% bovine casein and 1.0% human serum albumin
[5] = hGIPR EC50, nM (SEM, n), 37° C., 0.1% bovine casein (no human serum albumin), geometric mean
[6] = HEK293, read-out: hGLP-1R Emax, % ± SEM, cAMP, 37° C., 0.1% bovine casein and 1.0% human serum albumin, percent of maximal response to GLP-1(7-36)NH2
[7] = HEK293, read-out: hGLP-1R Emax, % ± SEM, cAMP, 37° C., 0.1% bovine casein, percent of maximal response to GLP-1(7-36)NH2, arithmetic mean
[8] = hGLP-1R EC50, nM (SEM, n), 37° C., 0.1% bovine casein (no human serum albumin), geometric mean
[9] = hGCGR EC50, nM (SEM, n), 37° C., 0.1% bovine casein (no human serum albumin), geometric mean
[10] = hGCGR EC50, nM (SEM, n), 37° C., 0.1% bovine casein and 1.0% human serum albumin, geometric mean (SEM, n)

| Compound | Emax [1, 4] [%] | Emax ([1]; HEK293, read-out: hGIPR Emax, % ± SEM, cAMP, 37° C., 0.1% bovine casein, arithmetic mean) [%] | EC50 [1, 5] [nM] | Emax [2, 6] [%] | Emax [2, 7] [%] | EC50 [2, 8] [nM] | EC50 [3, 9] [nM] | EC50 [3, 10] [nM] | EC50 ([1]; hGIPR EC50, nM (SEM, n), 37° C., 0.1% bovine casein and 1.0% human serum albumin, geometric mean (SEM, n)) [nM] | EC50 ([2]; hGLP-1R EC50, nM (SEM, n), 37° C., 0.1% bovine casein and 1.0% human serum albumin, geometric mean (SEM, n)) [nM] | EC50 ([1]; hGIPR EC50, nM (SEM, n), incubated at 37° C., 0.1% bovine casein (no human serum albumin), geometric mean) [nM] | Emax ([2]; HEK293, read-out: hGLP-1R Emax, % ± SEM, percent of maximal response to GLP-1(7-36)NH2, 37° C., 0.1% bovine casein, arithmetic mean) [%] | EC50 ([2]; hGLP-1R EC50, nM (SEM, n), incubated at 37° C., 0.1% bovine casein (no human serum albumin), geometric mean) [nM] | EC50 ([3]; hGCGR EC50, nM (SEM, n), incubated at 37° C., 0.1% bovine casein (no human serum albumin), geometric mean) [nM] | EC50 ([1]; 37° C., 0.1% bovine casein (no human serum albumin), geometric mean, read-out: hGIPR EC50, nM (SEM, n)) [nM] | EC50 ([2]; 37° C., 0.1% bovine casein (no human serum albumin), geometric mean, read-out: hGLP-1R EC50, nM (SEM, n)) [nM] | EC50 ([3]; 37° C., 0.1% bovine casein (no human serum albumin), geometric mean, read-out: hGCGR EC50, nM (SEM, n)) [nM] |
| --- | --- | --- | --- | --- | --- | --- | --- | --- | --- | --- | --- | --- | --- | --- | --- | --- | --- |
| CC[C@H](C)[C@H](NC(=O)[C@H](CC(C)C)NC(=O)[C@](C)(Cc1ccc(O)cc1)NC(=O)[C@@H](CCC(=O)O)NC(=O)[C@@H](NC(=O)[C@H](Cc1ccccc1)NC(=O)[C@H](CCCN)NC(=O)C(C)(C)NC(=O)[C@H](CCC(N)=O)NC(=O)[C@H](C)NC(=O)[C@H](CCCCNC(=O)COCCOCCNC(=O)COCCOCCNC(=O)CC[C@H](NC(=O)CCCCCCCCCOc1ccc(C(=O)O)cc1)C(=O)O)NC(=O)[C@H](CCCN)NC(=O)[C@H](CC(=O)O)NC(=O)[C@H](CC(C)C)NC(=O)[C@](C)(CC(C)C)NC(=O)[C@@H](NC(=O)C(C)(C)NC(=O)[C@@H](NC(=O)[C@H](CC(=O)O)NC(=O)[C@H](CO)NC(=O)[C@@H](NC(=O)[C@](C)(Cc1ccccc1F)NC(=O)[C@@H](NC(=O)CNC(=O)[C@H](CCC(=O)O)NC(=O)C(C)(C)NC(=O)[C@@H](N)Cc1ccc(O)cc1)[C@@H](C)O)[C@@H](C)O)C(C)C)[C@@H](C)CC)[C@@H](C)CC)C(=O)N[C@@H](CCCCNC(=O)COCCOCCNC(=O)COCCOCCNC(=O)CC[C@H](NC(=O)CCCCCCCCCOc1ccc(C(=O)O)cc1)C(=O)O)C(=O)NCC(=O)NCC(=O)N1CCC[C@H]1C(=O)N[C@@H](CO)C(=O)N[C@@H](CO)C(=O)NCC(=O)N[C@@H](C)C(=O)N1CCC[C@H]1C(=O)N1CCC[C@H]1C(=O)N1CCC[C@H]1C(=O)N[C@@H](CO)C(N)=O [Example 353] | 84.8 | 98.2 | 0.0249 | 92.5 | 98 | 0.203 | > 9950 | > 9950 |  |  |  |  |  |  |  |  |  |
| CC[C@H](C)[C@H](NC(=O)[C@H](CCCN)NC(=O)[C@H](CC(=O)O)NC(=O)[C@H](CC(C)C)NC(=O)[C@](C)(CC(C)C)NC(=O)[C@@H](NC(=O)C(C)(C)NC(=O)[C@H](Cc1ccc(O)cc1)NC(=O)[C@H](CC(=O)O)NC(=O)[C@H](CO)NC(=O)[C@@H](NC(=O)[C@](C)(Cc1ccccc1F)NC(=O)[C@@H](NC(=O)CNC(=O)[C@H](CCC(=O)O)NC(=O)C(C)(C)NC(=O)[C@@H](N)Cc1ccc(O)cc1)[C@@H](C)O)[C@@H](C)O)[C@@H](C)CC)C(=O)N[C@@H](C)C(=O)N[C@@H](CCC(N)=O)C(=O)NC(C)(C)C(=O)N[C@@H](CCCN)C(=O)N[C@@H](Cc1ccccc1)C(=O)N[C@H](C(=O)N[C@@H](CCCCNC(=O)COCCOCCNC(=O)COCCOCCNC(=O)CC[C@H](NC(=O)CCCCCCCCCOc1ccc(C(=O)O)cc1)C(=O)O)C(=O)N[C@@](C)(Cc1ccc(O)cc1)C(=O)N[C@@H](CC(C)C)C(=O)N[C@H](C(=O)N[C@@H](CCCCNC(=O)COCCOCCNC(=O)COCCOCCNC(=O)CC[C@H](NC(=O)CCCCCCCCCOc1ccc(C(=O)O)cc1)C(=O)O)C(=O)NCC(=O)NCC(=O)N1CCC[C@H]1C(=O)N[C@@H](CO)C(=O)N[C@@H](CO)C(=O)NCC(=O)N[C@@H](C)C(=O)N1CCC[C@H]1C(=O)N1CCC[C@H]1C(=O)N1CCC[C@H]1C(=O)N[C@@H](CO)C(N)=O)[C@@H](C)CC)[C@@H](C)CC [Example 355] | 86 |  | 0.0365 | 109 | 105 | 0.574 | > 9950 | > 9950 | 1.81 | 11.3 |  |  |  |  |  |  |  |
| CC[C@H](C)[C@H](NC(=O)[C@H](CC(C)C)NC(=O)[C@](C)(Cc1ccc(O)cc1)NC(=O)[C@H](CCCCNC(=O)COCCOCCNC(=O)COCCOCCNC(=O)CC[C@H](NC(=O)CCCCCCCCCCCCC(=O)O)C(=O)O)NC(=O)[C@@H](NC(=O)[C@H](Cc1ccccc1)NC(=O)[C@H](CCC(=O)O)NC(=O)C(C)(C)NC(=O)[C@H](CCC(N)=O)NC(=O)[C@H](C)NC(=O)[C@H](CCCCNC(=O)COCCOCCNC(=O)COCCOCCNC(=O)CC[C@H](NC(=O)CCCCCCCCCCCCC(=O)O)C(=O)O)NC(=O)[C@H](CCCN)NC(=O)[C@H](CC(=O)O)NC(=O)[C@H](CC(C)C)NC(=O)[C@](C)(CC(C)C)NC(=O)[C@@H](NC(=O)C(C)(C)NC(=O)[C@@H](NC(=O)[C@H](CC(=O)O)NC(=O)[C@H](CO)NC(=O)[C@@H](NC(=O)[C@](C)(Cc1ccccc1F)NC(=O)[C@@H](NC(=O)CNC(=O)[C@H](CCC(=O)O)NC(=O)C(C)(C)NC(=O)[C@@H](N)Cc1ccc(O)cc1)[C@@H](C)O)[C@@H](C)O)C(C)C)[C@@H](C)CC)[C@@H](C)CC)C(=O)N[C@@H](CCC(=O)O)C(=O)NCC(=O)NCC(=O)N1CCC[C@H]1C(=O)N[C@@H](CO)C(=O)N[C@@H](CO)C(=O)NCC(=O)N[C@@H](C)C(=O)N1CCC[C@H]1C(=O)N1CCC[C@H]1C(=O)N1CCC[C@H]1C(=O)N[C@@H](CO)C(N)=O [Example 115] |  |  |  |  |  |  |  |  |  |  | 0.103 | 91.6 | 0.16 | > 9950 |  |  |  |
| CC[C@H](C)[C@H](NC(=O)[C@H](CCCN)NC(=O)[C@H](CC(=O)O)NC(=O)[C@H](CC(C)C)NC(=O)[C@](C)(CC(C)C)NC(=O)[C@@H](NC(=O)C(C)(C)NC(=O)[C@H](Cc1ccc(O)cc1)NC(=O)[C@H](CC(=O)O)NC(=O)[C@H](CO)NC(=O)[C@@H](NC(=O)[C@](C)(Cc1ccccc1F)NC(=O)[C@@H](NC(=O)CNC(=O)[C@H](CCC(=O)O)NC(=O)C(C)(C)NC(=O)[C@@H](N)Cc1ccc(O)cc1)[C@@H](C)O)[C@@H](C)O)[C@@H](C)CC)C(=O)N[C@@H](C)C(=O)N[C@@H](CCC(N)=O)C(=O)NC(C)(C)C(=O)N[C@@H](CCC(=O)O)C(=O)N[C@@H](Cc1ccccc1)C(=O)N[C@H](C(=O)N[C@@H](CCCCNC(=O)COCCOCCNC(=O)CC[C@H](NC(=O)CCCCCCCCCCCCC(=O)O)C(=O)O)C(=O)N[C@@](C)(Cc1ccc(O)cc1)C(=O)N[C@@H](CC(C)C)C(=O)N[C@H](C(=O)N[C@@H](CCCCNC(=O)COCCOCCNC(=O)CC[C@H](NC(=O)CCCCCCCCCCCCC(=O)O)C(=O)O)C(=O)NCC(=O)NCC(=O)N1CCC[C@H]1C(=O)N[C@@H](CO)C(=O)N[C@@H](CO)C(=O)NCC(=O)N[C@@H](C)C(=O)N1CCC[C@H]1C(=O)N1CCC[C@H]1C(=O)N1CCC[C@H]1C(=O)N[C@@H](CO)C(N)=O)[C@@H](C)CC)[C@@H](C)CC [Example 369] |  |  |  |  |  |  |  |  |  |  |  |  |  |  | 0.037 | 0.555 | > 9950 |
